Measured values reported in paper PMC8036603, “Small Molecule Inhibitors of White Spot Syndrome Virus: Promise in Shrimp Seedling Culture” (International Journal of Molecular Sciences, 2021).

What was measured:
[1] = system: white spot syndrome virus (WSSV); test: Survival of WSSV-infected shrimp larvae on co-incubation with compound; format: in vivo, Litopenaeus vannamei; details: for enhancement of survival rate in WSSV-infected larvae: 72 hpi, 10 mg/L, co-incubation; for decrease of mortality of WSSV-infected larvae after exposure: abstract statement
Description: For in vivo study of co-incubation, C2 and C7 was separately incubated with WSSV and shrimp larvae.
Figure 2 C2 and C7 inhibited WSSV infection in shrimp larvae. (A) Schematic diagram describing the workflow. (B) The survival rate of WSSV-infected shrimp was analyzed in 0.31 to 10 mg/L treatments at 72 hpi. (C) Survivorship curve of WSSV-infected shrimp was analyzed in C2 and C7 up to 10 mg/L treatment. (D) Quantification on copy number of viral genome was tested by exposure to C2 and C7 up to 10 mg/L treatment at 24, 48, and 72 hpi, respectively. The virus-infected shrimps were immersed with the compounds and DMSO at the dose 0.2‰ (v/v). Each value is represented as the mean ± SD normalized to values for no treatment. The p value for each study was determined by Student’s t tests. ** p < 0.01.
[…], shrimp larvae were randomly selected, separated into six-well plates containing ultraviolet light-sterilized aquacultural water, and infected with WSSV (final viral titer of 1.6 × 10^5 copies/µL) in the presence of coumarins for 72 h. Mock negative controls (1% DMSO) were also used. The homogenate of each well containing sick or dead shrimp was subjected to low-speed centrifugation (2000× g). The viral load was quantified by determining the copy number of the viral genome in samples by quantitative reverse transcription polymerase chain reaction (RT-qPCR) assay, as previously described.

[2] = Solubility / precipitation in aquacultural water; format: physicochemical; details: for lowest precipitation concentration / lowest precipitation concentration (bracketed value in LC50 48 h column) / lowest precipitation concentration (bracketed value in LC50 72 h column): test range 0.4~100 mg/L, aquacultural water, LC50 NONE; for solubility in aquacultural water: tested concentration 16 mg/L, 28 °C
Description: Prior to evaluation of the anti-WSSV activity of coumarins, the safety doses for larvae needed to be determined. […] In contrast, the electron-withdrawing group was more toxic than the electron-donating group, with the LC50 of A5‒A8 being <5 mg/L at 72 h. […] Based on preliminary analysis of the structure-activity relationship (SAR) of similar spatial structures with different substituents of electron-donating and electron-withdrawing groups to coumarins A1, B1, and C1, we considered that […] of compounds; this provides a basis for further research.
All conventional reagents and solvents are purchased directly from commercial companies and no further purification is required. Organic solvents were purchased from Sinopharm chemical reagent Co., Ltd. and purified by distillation and moisture was excluded from the glass apparatus using CaCl2 drying tubes. Throughout this study, silica gel H (200–300 mesh; Qingdao Marine Chemical Factory, Qingdao, China) was used for the column chromatography. For thin layer chromatographic (TLC) plates, Silica gel (GF254) (Qingdao Marine Chemical Factory, Qingdao, China) were used for thin layer chromatographic (TLC) analysis, and all of the spots and bands were detected by UV irradiation (254, 365 nm). The intermediates and products were characterized by electrospray ionization mass spectrometry (TripleTOF5600þ; AB SCIEX Pte. Ltd., Boston, MA, USA), ^1H NMR and ^13C NMR (Bruker AM500 spectrometer; Bruker Corporation, Berne, Switzerland). The derivatives were dissolved in 100% dimethyl sulfoxide (DMSO; Beyotime Biotechnology, Haimen, China), stored at 4 °C prior to antiviral evaluation, and used within 6 months. For solubility, the stock solutions, at a concentration of 50 mg/mL, were sonicated for approximately 10 min to ensure that the derivatives were fully dissolved and mixed.

[3] = system: white spot syndrome virus (WSSV); test: Stability assay in aquacultural water (residual anti-WSSV activity); set-up: species or system Litopenaeus vannamei; details: 28 °C, nonlinear regression best-fit
Description: Aquaculture water was obtained from culture ponds of the Zhejiang Mariculture Research Institute Qingjiang Station. C2/C7, with a final concentration of 10 mg/L, was added to aquacultural water samples in the presence of natural light for up to 4 days, at 28 °C, and finally preincubated with WSSV (final viral titer of 1.6 × 10^5 copies/µL) to infect shrimp larvae, followed by quantification of the copy number of the viral genome at 72 hpi, and the survival rate of the shrimp was evaluated.

[4] = system: white spot syndrome virus (WSSV); test: Preincubation of WSSV with compound before infection of larvae; format: in vivo, Litopenaeus vannamei; details: virus pre-incubated with compound 1–4 h; for increase of survival rate: 10 mg/L
Description: For preincubation with immersion, WSSV was preincubated with C2/C7 to a final viral titer of 1.6 × 10^5 copies/µL and up to 10 mg/L coumarin compound or vehicle control in the challenge wells. After 1, 2, and 4 h of incubation, shrimp larvae were added to the challenge well until 72-h post-infection. The surviving shrimp were humanely euthanized with tricaine methane sulfonate (MS-222) at a final concentration of 150 mg/L, followed by quantification of the copy number of the viral genome.

[5] = system: white spot syndrome virus (WSSV); test: Continuous immersion with compound exchange after WSSV infection; format: in vivo, Litopenaeus vannamei; details: for survival rate: 10 mg/L
Description: For continuous immersion with cultural medium exchange, the culture water in each well was replaced by C2/C7 or DMSO solution after WSSV infection (final viral titer of 1.6 × 10^5 copies/µL) for 24 h. Every 24 h, the shrimp were transformed into a new challenge well with fresh water and a fresh dose of C2/C7 or DMSO (0.2‰) for an additional 5 days. The survival shrimps were euthanized with MS-222 and frozen at −80 °C until processing. The survival of shrimp larvae and the copy number of viral genome in samples were described as above.

[6] = system: white spot syndrome virus (WSSV); test: Horizontal transmission of WSSV to naive recipient larvae; format: in vivo, Litopenaeus vannamei; details: 10 mg/L, each time point
Description: Shrimp larvae were infected with 1.6 × 10^5 copies/µL WSSV or aquacultural water only. At 24 hpi, a total of the 12 donor shrimps were placed into each challenge beaker (100 mL of water and a continuous air supply), and C2 (10 mg/L final concentration) or DMSO (0.2‰ final concentration) was added to each challenge beaker. Every 24 h, five donor and fifteen recipient shrimp were netted into a new challenge beaker with fresh water and a fresh dose of C2/C7 (10 mg/L) or DMSO (0.2‰). After 72 h of cohabitation, the surviving recipient shrimps were euthanized with MS-222 and frozen at −80 °C. In order to distinguish the donor and recipient samples in this test, we chose the larger shrimp as the recipients (total length of 1.1 ± 0.2 cm, body weight of 6.9 ± 0.5 mg, mean values ± SD) and placed a sieve in the challenge beaker to separate the donor and recipient shrimps.

[7] = 60 h after exposure, larvae pre-infected 24 h, no exchange, untreated 0%
[8] = at 120 h, compound exchanged one to four times

Compound	enhancement of survival rate in WSSV-infected larvae [1]	decrease of mortality of WSSV-infected larvae after exposure [1]	lowest precipitation concentration [2]	lowest precipitation concentration (bracketed value in LC50 48 h column) [2]	lowest precipitation concentration (bracketed value in LC50 72 h column) [2]	solubility in aquacultural water [2]	half-life at 10 mg/L ([3]; buffer, read-out: calculated inhibitory half-life in water samples (converted)) [h]	effect on WSSV infection (viral genome copy number) [4]	increase of survival rate [4]	survival rate [5, 7] [%]	mortality with continuous immersion of compound exchange ([5]; at 120 h) [%]	survival rate [5, 8]	WSSV replication in naïve recipient larvae [6]	calculated inhibitory half-life in water samples ([3]; 10 mg/L) [h]
Cc1ccc(C2C(C#N)=C(N)Oc3c2c(=O)oc2ccccc32)cc1 (centres unmarked) [C2, 2-amino-5-oxo-4-(p-tolyl)-4H,5H-pyrano[3,2-c]chromene-3-carbonitrile]	more than 65%	more than 60%	NONE (16) mg/L	NONE (16) mg/L	NONE (16) mg/L	insoluble	55.2	suppressed WSSV infection	up to 40%	50	40	more than 60%	significantly downregulated	–
2-amino-4-(4-chlorophenyl)-5-oxo-4H,5H-pyrano[3,2-c]chromene-3-carbonitrile [C7]	more than 65%	more than 60%	NONE (16) mg/L	NONE (16) mg/L	NONE (16) mg/L	insoluble	–	suppressed WSSV infection	up to 40%	50	40	more than 60%	significantly downregulated	57.6
